Assay results as given in patent US20100234395A1, “UREIDE DERIVATIVE AND PHARMACEUTICAL APPLICATION THEREOF” (TORAY INDUSTRIES, INC., priority 2006, published 2010).
Read-outs that look alike come from different tables or passages of the source.

Columns and labels:
ICR mice = experiment: Partial sciatic nerve ligation model in mice (Seltzer model), von Frey test; assay type: in vivo; settings: oral administration of 3 and 10 mg/kg of Example 27 and Example 40, respectively; 7 days after ligation; FIG. 1
Procedure: Analgesic effects of the compound of the present invention were evaluated using the partial sciatic nerve ligation model (Seltzer models) in mice, with which neuropathic pain can be evaluated.
Models of neuropathic pain were prepared in accordance with the method of Seltzer et al. ICR mice (5-week-old, male) were put under anesthesia with sodium pentobarbital (70 mg/kg, i.p.) to expose the sciatic nerve of the femoral region of the right posterior limb, and half of the sciatic nerve was strongly and triply ligated using 8-0 silk yarn (Natsume Seisakusho, Co., Ltd.) under a microscope (this group is designated as the “ligation group”). The group that had been subjected to exposure of the sciatic nerve without ligation was designated as a sciatic nerve control group (i.e., the “sham group”). […] The von Frey tests were performed 1 hour, 2 hours, and 3 hours after the oral administration for determining the pre-values prior to the administration of the test substances, which took place 7 days after the ligation surgery of sciatic nerve, and such values were designated as the indicators of analgesic effects. Gabapentin (30 mg/kg, po) was used as a positive control. As a solvent for the test compound, 27% HP—P—CD was used.
The obtained data were processed by performing a paired t-test amongst several groups and correcting the data via Dunnett's method.
The compound of Reference Example 78 is disclosed in the claims of JP Patent Publication (kohyo) No. 2006-517535 A, the compounds of Reference Example 93 and Reference Example 199 are disclosed in the claims of JP Patent No. 3003148, and the compound of Reference Example 103 is disclosed in the claims of JP Patent Publication (kohyo) No. 2006-514095 A. Accordingly, sulfate of Reference Example 78, toluenesulfonate of Reference Example 93, the free compound of Reference Example 199, and sulfate of Reference Example 103 were used as test compounds and evaluated using mouse models of partial sciatic nerve ligation, which were similar to those used in Example 79. 27% HP-β-CD was used as a solvent for the test compounds.

ddY mice [1] = experiment: Acetic acid writhing test in mice (analgesic effects); assay type: in vivo; settings: for ED50: Mus musculus; for activity ratio (analgesic effects): subcutaneous administration
Procedure: ddY mice were grown for at least 16 hours under fasting conditions while free water intake was allowed, and a solution of the test compound or a solvent was orally administered thereto (0.1 ml/10 g). As a solvent for a solution of the test compound, dimethyl sulfoxide (DMSO):Tween 80:27% hydroxypropyl-P-cyclodextrin (hereafter abbreviated to “HP-β-CD”) (1:1:8) or 27% HP-β-CD was used. A solution of 0.6% acetic acid (0.1 ml/10 g) was administered intraperitoneally 45 minutes after administration to induce a writhing reaction (i.e., a movement of stretching or arching the body). The number of the writhing reactions that had occurred for the period from 10 minutes after administration of the acetic acid solution to 10 minutes thereafter was counted, and the number of times was designated as an indicator of pain. The number of times of reactions in the group to which a solvent had been administered was designated as 100%, and the concentration of the test compound that had inhibited 50% of such reaction was designated as the ED50 value.
The compound of Reference Example 78 is disclosed in the claims of JP Patent Publication (kohyo) No. 2006-517535 A, the compounds of Reference Examples 93 and 199 are disclosed in the claims of JP Patent No. 3003148, and the compound of Reference Example 103 is disclosed in the claims of JP Patent Publication (kohyo) No. 2006-514095 A. Thus, these compounds were compared with the compounds of the present invention having similar structures in terms of analgesic effects with oral administration (Table 4) or subcutaneous administration (Table 5). Dimethyl sulfoxide (DMSO):Tween 80:27% HP-β-CD (1:1:8) or 27% HP-β-CD was used as a solvent for the test compound.

ddY mice [2] = experiment: Formalin test in mice; assay type: in vivo; settings: oral 10 mg/kg, FIG. 2
Procedure: ddY mice were grown for at least 16 hours under fasting conditions while free water intake was allowed, and a solution of the test compound or a solvent was orally administered thereto (0.1 ml/10 g). As a solvent for a solution of the test compound, 27% HP-β-CD was used. Thirty minutes after administration, 20 μl of a 2.5% formalin solution was subcutaneously administered to the ichnograms of right posterior legs of mice to induce a movement of licking. A movement of mice to lick the treated legs was designated as an indicator of pain, and the licking time was measured at 5-minute intervals for 30 minutes. The reaction that had occurred within 10 minutes immediately after administration of the formalin solution was designated as the phase I reaction, and the reaction that had occurred 10 to 30 minutes after administration was designated as the phase II reaction.

COX-2 = target: T1, COX-2 (Homo sapiens, UniProt P35354); experiment: Activity of inhibiting COX-2 in human blood (prostaglandin E2 after lipopolysaccharide); assay type: cell-based; settings: prostaglandin E2 production
T1 construct: Human blood that had been sampled with the use of heparin (19 units/ml) was used; from tissue; host or cells: human whole blood (heparinised), aspirin-pretreated, stimulated with lipopolysaccharide
T1 sequence (P35354 18-604): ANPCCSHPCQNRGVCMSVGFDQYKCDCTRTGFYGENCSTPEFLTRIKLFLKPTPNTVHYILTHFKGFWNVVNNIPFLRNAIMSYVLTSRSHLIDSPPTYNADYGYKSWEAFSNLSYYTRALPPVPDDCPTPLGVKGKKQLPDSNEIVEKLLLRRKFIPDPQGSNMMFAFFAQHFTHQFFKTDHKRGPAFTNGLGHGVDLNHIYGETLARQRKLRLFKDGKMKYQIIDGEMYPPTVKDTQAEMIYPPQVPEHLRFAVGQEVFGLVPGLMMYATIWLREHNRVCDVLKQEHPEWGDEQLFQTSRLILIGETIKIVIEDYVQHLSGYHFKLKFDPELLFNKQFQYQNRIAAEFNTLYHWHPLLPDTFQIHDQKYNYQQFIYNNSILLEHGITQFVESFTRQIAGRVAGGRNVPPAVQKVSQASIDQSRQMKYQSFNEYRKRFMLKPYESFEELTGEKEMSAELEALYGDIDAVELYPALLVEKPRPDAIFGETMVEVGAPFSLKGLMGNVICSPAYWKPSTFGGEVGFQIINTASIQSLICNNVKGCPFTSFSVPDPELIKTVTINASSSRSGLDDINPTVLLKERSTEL
Procedure: Human blood that had been sampled with the use of heparin (19 units/ml) was used. Blood was fractionated to reaction tubes in amounts of 500 μl, aspirin (12 μg/ml) was added thereto, and the resultants were incubated at 37° C. for 6 hours. Thereafter, the test compound or solvent, and lipopolysaccharide (10 μg/ml) were added, and the reaction was allowed to proceed for 18 hours. After the completion of the reaction, the supernatant (blood plasma) was recovered via centrifugation at 4° C., and the amount of prostaglandin E2 in the plasma was quantified using a kit (514010, Cayman Chemical). Dimethyl sulfoxide (DMSO) was used as a solvent for the test compound. The amount of prostaglandin E2 produced via the addition of lipopolysaccharide was designated as 100%, and the concentration of the test compound that inhibits 50% of such reaction was represented by the IC50 value.

COX-1 = target: T2, COX-1 (Homo sapiens, UniProt P23219); experiment: Activity of inhibiting COX-1 in human blood (thromboxane B2 after ionomycin); assay type: cell-based; settings: thromboxane B2 production
T2 construct: Human blood that had been sampled with the use of heparin (19 units/ml) was used; from tissue; host or cells: human whole blood (heparinised)
T2 sequence (P23219 24-599): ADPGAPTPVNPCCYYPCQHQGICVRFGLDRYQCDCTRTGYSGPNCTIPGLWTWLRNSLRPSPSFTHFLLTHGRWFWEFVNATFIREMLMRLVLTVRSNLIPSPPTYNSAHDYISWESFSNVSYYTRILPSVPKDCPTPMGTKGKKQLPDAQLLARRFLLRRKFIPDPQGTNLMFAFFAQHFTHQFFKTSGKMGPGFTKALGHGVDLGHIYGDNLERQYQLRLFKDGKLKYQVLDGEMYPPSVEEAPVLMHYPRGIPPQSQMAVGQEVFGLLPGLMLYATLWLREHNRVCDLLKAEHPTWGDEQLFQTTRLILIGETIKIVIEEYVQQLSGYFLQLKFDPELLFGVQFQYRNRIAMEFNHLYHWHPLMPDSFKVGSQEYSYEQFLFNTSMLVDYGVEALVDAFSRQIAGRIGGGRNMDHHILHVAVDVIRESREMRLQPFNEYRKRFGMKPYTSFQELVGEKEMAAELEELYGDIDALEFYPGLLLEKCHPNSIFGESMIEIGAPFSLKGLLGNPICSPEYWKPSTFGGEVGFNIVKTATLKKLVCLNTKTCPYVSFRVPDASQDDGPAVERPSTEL
Procedure: Human blood that had been sampled with the use of heparin (19 units/ml) was used. Blood was fractionated to reaction tubes in amounts of 500 μl, the test compound or solvent was added thereto, and the resultants were incubated at 37° C. for 60 minutes. Dimethyl sulfoxide (DMSO) was used as a solvent for the test compound. Thereafter, ionomycin (30 nM) was added, and the reaction was allowed to proceed for 30 minutes. After the completion of the reaction, the supernatant (blood plasma) was recovered via centrifugation at 4° C., and the amount of thromboxane B2 in the plasma was quantified using a kit (519031, Cayman Chemical). The amount of thromboxane B2 produced via the addition of ionomycin was designated as 100%, and the concentration of the test compound that inhibits 50% of such reaction was represented by the IC50 value.

`COc1ccc(-c2nc(C3CCN(C(=O)N(C)O)CC3)sc2-c2ccc(OC)cc2)cc1` [Example 27, 4-(4,5-Bis(4-methoxyphenyl)thiazol-2-yl)-1-(N-hydroxy-N-methylcarbamoyl)piperidine] was tested, and the “results of the von Frey test” value (ICR mice) was “significantly improved”, the ED50 (ddY mice [1]; sc, Table 5, subcutaneous administration, read-out: ED50 (mg/kg) [90% confidence limit]) was 1.82 mg/kg and the ED50 (ddY mice [1]; oral administration 45 minutes before 0.6% acetic acid i.p., 50% inhibition of writhing reactions, read-out: ED50 (mg/kg)[90% confidence limit]) was 2.46 mg/kg. For the same compound, the “activity ratio (analgesic effects)” value (ddY mice [1]; compared with Reference Example 93 (toluenesulfonate)) was “at least 54 times”, the “activity ratio (analgesic effects)” value (ddY mice [1]; compared with Reference Example 199) was “about 19 times” and the “indicator of pain (licking time), phase II” value (ddY mice [2]; 10 to 30 minutes after formalin) was “significantly improved”. The “indicator of pain (licking time), phase I” value (ddY mice [2]; within 10 minutes after formalin) was “significantly improved”, the IC50 (COX-2) was > 10 µM and the IC50 (COX-1) was < 0.1 µM.
